Data: patent US7410975B2, “Small molecule toll-like receptor (TLR) antagonists” (Coley Pharmaceutical Group, Inc., priority 2003, dated 2008)

The compounds below were run against T1, human TLR3 (hTLR3) (Homo sapiens, UniProt O15455) (assay: Antagonist screen, hTLR3-NFκB-293 cells, NF-κB-luciferase reporter, with EC50 of poly(I:C)). Conditions: compound at 0.5, 5, 50 μg/ml; EC50 concentration of poly(I:C); 16 h; NF-κB-luciferase.
T1 construct: expressed in transfected cells
T1 sequence (O15455 24-904): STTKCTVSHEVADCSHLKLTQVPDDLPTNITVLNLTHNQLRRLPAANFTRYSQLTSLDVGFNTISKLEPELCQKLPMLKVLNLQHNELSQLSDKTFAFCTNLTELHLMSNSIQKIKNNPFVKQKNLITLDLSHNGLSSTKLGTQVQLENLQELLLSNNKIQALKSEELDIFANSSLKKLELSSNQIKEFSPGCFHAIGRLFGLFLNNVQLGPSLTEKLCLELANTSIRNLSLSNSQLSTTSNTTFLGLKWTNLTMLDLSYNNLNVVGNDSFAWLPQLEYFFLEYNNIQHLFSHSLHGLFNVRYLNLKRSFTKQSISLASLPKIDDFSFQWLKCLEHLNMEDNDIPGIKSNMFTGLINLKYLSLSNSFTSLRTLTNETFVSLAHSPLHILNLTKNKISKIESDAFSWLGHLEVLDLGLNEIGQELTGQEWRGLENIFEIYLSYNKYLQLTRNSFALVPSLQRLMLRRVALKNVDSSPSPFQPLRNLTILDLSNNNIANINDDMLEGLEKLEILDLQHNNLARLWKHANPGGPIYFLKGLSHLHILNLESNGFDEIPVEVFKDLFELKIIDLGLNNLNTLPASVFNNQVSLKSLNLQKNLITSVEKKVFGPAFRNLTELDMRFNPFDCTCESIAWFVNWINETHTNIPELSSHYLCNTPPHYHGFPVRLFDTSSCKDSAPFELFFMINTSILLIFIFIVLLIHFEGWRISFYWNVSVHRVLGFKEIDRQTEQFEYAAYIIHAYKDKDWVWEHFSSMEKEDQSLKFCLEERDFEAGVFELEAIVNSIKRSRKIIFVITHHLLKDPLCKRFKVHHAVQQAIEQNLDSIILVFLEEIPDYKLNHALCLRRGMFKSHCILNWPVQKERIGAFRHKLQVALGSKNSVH
Type: cell-based
Experimental: The method is described in greater detail as follows. The cells for each individual cell clone (hTLR3-NFκB-293, hTLR7-NFκB-293, hTLR8-NFκB-293 and hTLR9-NFκB-293) were counted and seeded one day before the stimulation at 1.5×10^4 cells per well in 96-well cell culture plates. To become adherent the cells were incubated after seeding overnight at 37° C. in 5% CO2 humidified air.
The screen for each compound was performed at the same time for all of the receptors TLR3, TLR7, TLR8 and TLR9. Up to fifteen test compounds, each assayed in duplicate at each of three different final concentrations (0.5 μg/ml, 5 μg/ml, and 50 μg/ml), were used for 16 h cell stimulation on a single multiwell culture plate. A 4× final concentration master plate was created to prepare the different test compounds before they were added to the cells.
Controls were added as duplicates individually for each cell clone on the cell culture plate. Positive controls were used as follows (final concentrations): 50 μg/ml poly(I:C) for hTLR3-NFκB-293; 8 μM resiquimod (R848) for hTLR7-NFκB-293; 30 μM R848 for hTLR8-NFκB-293; and 2.5 μM CpG-ODN 2006 for hTLR9-NFκB-293. Media alone was used as negative control. After addition of controls and small molecules, the cell clones were additionally stimulated with the EC50 concentration of the appropriate receptor-specific ligand.
The mean value of wells H2 and H5 (each with cells and EC50 concentration of the appropriate receptor-specific ligand) divided by the mean of wells H3 and H6 (each with cells alone) yielded the baseline response (i.e., fold induction of luciferase activity) to EC50 concentration of the appropriate receptor-specific ligand.
After 16 h stimulation the supernatant was removed and the cells treated with lysis buffer and stored at −80° C. before measuring.
For each screen result a graphical documentation was performed.
The baseline result (measured with addition of the EC50 concentration of the receptor-specific ligand) for each cell culture plate was measured as described above. Antagonistic effects were measured by down regulation compared to the baseline. Antagonists were scored as follows: • 13: compounds for which there was clear down regulation at 0.5 μg/ml, 5 μg/ml, and 50 μg/ml; • 12: compounds for which there was clear down regulation at 5 μg/ml and 50 μg/ml; • 11: compounds for which there was clear down regulation only at 50 μg/ml; • —: compounds for which there was no clear down regulation even at 50 μg/ml. Agonists
Results were expressed as fold induction over baseline luciferase activity measured in the absence of poly(I:C). […] Additional screening was performed in like manner using additional small molecules selected from another library or specifically prepared for this purpose. Scoring is reported as above but as applied to TLR3.
For `O=C1c2ccccc2C(=O)c2c1ccc1c(=O)n(C3CCCCC3)[nH]c21` [compound 1015], the “hTLR3 (inhibitory effect, antagonist score)” value was “— (compounds for which there was no clear down regulation even at 50 μg/ml)”.
In the case of `CCOC(=O)c1cc([N+](=O)[O-])cc2c1-c1ccc([N+](=O)[O-])cc1C2=C(C#N)C#N` [compound 1039], the “hTLR3 (inhibitory effect, antagonist score)” value is reported as “— (compounds for which there was no clear down regulation even at 50 μg/ml)”.
In the case of `O=C1c2ccccc2C(=O)c2c1ccc1c(=O)n(-c3ccccc3)[nH]c21` [compound 1042], the “hTLR3 (inhibitory effect, antagonist score)” value is reported as 11 (compounds for which there was clear down regulation only at 50 μg/ml).
In the case of `O=C(c1cccc2c1-c1ccccc1/C2=N\O)N1CCCCC1` [compound 1050], the “hTLR3 (inhibitory effect, antagonist score)” value is reported as 12 (compounds for which there was clear down regulation at 5 μg/ml and 50 μg/ml).
With `NC(=O)c1cccc2c1-c1ccccc1C2` [compound 1132] the “hTLR3 (inhibitory effect, antagonist score)” value was 11 (compounds for which there was clear down regulation only at 50 μg/ml).
With `NC(=O)c1cc(N)c2c(c1N)C(=O)c1ccccc1C2=O` [compound 1158] the “hTLR3 (inhibitory effect, antagonist score)” value was “— (compounds for which there was no clear down regulation even at 50 μg/ml)”.
For `CC(=O)Oc1cc(C)c(C2(c3cc(C(C)C)c(OC(C)=O)cc3C)OC(=O)c3ccccc32)cc1C(C)C` [compound 1161], the “hTLR3 (inhibitory effect, antagonist score)” value was 12 (compounds for which there was clear down regulation at 5 μg/ml and 50 μg/ml).
For `COC(=O)c1cccc(C(O)(c2ccccc2)c2ccccc2)c1S(=O)(=O)C(C)(C)C` [compound 1187], the “hTLR3 (inhibitory effect, antagonist score)” value was 12 (compounds for which there was clear down regulation at 5 μg/ml and 50 μg/ml).
For `CCOCCOC(=O)c1cc([N+](=O)[O-])cc2c1-c1c(cc([N+](=O)[O-])cc1[N+](=O)[O-])C2=C(C#N)C#N` [compound 1241], the “hTLR3 (inhibitory effect, antagonist score)” value was 11 (compounds for which there was clear down regulation only at 50 μg/ml).
For `CC1CCN(C(=O)c2cccc3c2-c2ccccc2C3=O)CC1` [compound 1243], the “hTLR3 (inhibitory effect, antagonist score)” value was “— (compounds for which there was no clear down regulation even at 50 μg/ml)”.
`Cc1cccc(C2(c3cccc(C)c3)OC(=O)c3ccccc32)c1` [compound 1308] was tested, and the “hTLR3 (inhibitory effect, antagonist score)” value was 12 (compounds for which there was clear down regulation at 5 μg/ml and 50 μg/ml).
`COCCCNC(=O)c1ccc2c(c1N)C(=O)c1ccccc1C2=O` [compound 1337] was tested, and the “hTLR3 (inhibitory effect, antagonist score)” value was 11 (compounds for which there was clear down regulation only at 50 μg/ml).
For `O=C1Nc2ccccc2Oc2ccc([N+](=O)[O-])cc21` [compound 1352], the “hTLR3 (inhibitory effect, antagonist score)” value was “— (compounds for which there was no clear down regulation even at 50 μg/ml)”.
In the case of Flunarizinehydrochloride [compound 312], the “hTLR3 (inhibitory effect, antagonist score)” value is reported as 11 (compounds for which there was clear down regulation only at 50 μg/ml).
Maprotilinehydrochloride [compound 346] was tested, and the “hTLR3 (inhibitory effect, antagonist score)” value was 11 (compounds for which there was clear down regulation only at 50 μg/ml).
For Metixene hydrochloride [compound 491], the “hTLR3 (inhibitory effect, antagonist score)” value was 12 (compounds for which there was clear down regulation at 5 μg/ml and 50 μg/ml).
For “Prochlorperazinedimaleate [compound 399]”, the “hTLR3 (inhibitory effect, antagonist score)” value was 12 (compounds for which there was clear down regulation at 5 μg/ml and 50 μg/ml).
“Trifluoperazinedihydrochloride [compound 313]” was tested, and the “hTLR3 (inhibitory effect, antagonist score)” value was “— (compounds for which there was no clear down regulation even at 50 μg/ml)”.
